Experiments:
[1] = target: T1, Prostaglandin E2 receptor EP1 subtype (Homo sapiens) (UniProt P34995); experiment: Antagonist activity at human EP1 receptor at 1.1 uM by reporter gene assay
T1 sequence (whole entry): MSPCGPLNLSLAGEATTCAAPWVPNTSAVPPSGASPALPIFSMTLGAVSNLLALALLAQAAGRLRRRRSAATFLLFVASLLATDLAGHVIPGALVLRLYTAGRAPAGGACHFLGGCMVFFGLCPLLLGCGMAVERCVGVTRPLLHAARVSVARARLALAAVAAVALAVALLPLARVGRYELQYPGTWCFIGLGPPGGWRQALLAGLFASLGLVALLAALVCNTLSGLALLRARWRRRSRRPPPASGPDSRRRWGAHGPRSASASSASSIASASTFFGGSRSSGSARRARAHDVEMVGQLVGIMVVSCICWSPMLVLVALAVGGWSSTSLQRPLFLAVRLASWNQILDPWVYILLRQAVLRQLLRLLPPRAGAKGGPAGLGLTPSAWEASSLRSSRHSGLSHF

[2] = target: T2, Prostaglandin E2 receptor EP1 subtype (Homo sapiens, UniProt P34995); experiment: Antagonist activity at human EP1 receptor by reporter gene assay
T2 sequence (P34995 whole entry): T1 sequence (whole entry)

Salmonella typhimurium [3] = experiment: Genotoxicity in Salmonella typhimurium TA100; format: toxicity, organism-based; conditions: salmonella enterica subsp. enterica serovar typhimurium
Salmonella typhimurium [4] = experiment: Genotoxicity in Salmonella typhimurium TA98; format: toxicity, organism-based; conditions: salmonella enterica subsp. enterica serovar typhimurium
[5] = target: T2, Prostaglandin E2 receptor EP1 subtype; experiment: Binding affinity to human EP1 receptor
[6] = target: T3, Prostaglandin E2 receptor EP3 subtype (Homo sapiens, UniProt P43115); experiment: Binding affinity to human EP3 receptor
T3 sequence (P43115 whole entry): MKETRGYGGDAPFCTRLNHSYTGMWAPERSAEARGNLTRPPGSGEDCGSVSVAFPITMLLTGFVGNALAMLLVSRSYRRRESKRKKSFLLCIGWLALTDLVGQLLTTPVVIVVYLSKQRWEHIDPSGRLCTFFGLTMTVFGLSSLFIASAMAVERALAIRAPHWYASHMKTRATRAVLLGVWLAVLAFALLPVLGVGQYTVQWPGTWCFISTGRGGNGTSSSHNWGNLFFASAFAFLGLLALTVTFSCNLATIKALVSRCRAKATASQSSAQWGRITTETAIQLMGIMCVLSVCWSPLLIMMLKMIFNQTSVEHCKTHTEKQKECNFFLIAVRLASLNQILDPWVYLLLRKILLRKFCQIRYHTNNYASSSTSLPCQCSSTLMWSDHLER

Cytochrome P450 1A2 = target: T4, Cytochrome P450 1A2 (Homo sapiens, UniProt P05177); experiment: Inhibition of CYP1A2 (unknown origin); format: ADME
T4 sequence (P05177 whole entry): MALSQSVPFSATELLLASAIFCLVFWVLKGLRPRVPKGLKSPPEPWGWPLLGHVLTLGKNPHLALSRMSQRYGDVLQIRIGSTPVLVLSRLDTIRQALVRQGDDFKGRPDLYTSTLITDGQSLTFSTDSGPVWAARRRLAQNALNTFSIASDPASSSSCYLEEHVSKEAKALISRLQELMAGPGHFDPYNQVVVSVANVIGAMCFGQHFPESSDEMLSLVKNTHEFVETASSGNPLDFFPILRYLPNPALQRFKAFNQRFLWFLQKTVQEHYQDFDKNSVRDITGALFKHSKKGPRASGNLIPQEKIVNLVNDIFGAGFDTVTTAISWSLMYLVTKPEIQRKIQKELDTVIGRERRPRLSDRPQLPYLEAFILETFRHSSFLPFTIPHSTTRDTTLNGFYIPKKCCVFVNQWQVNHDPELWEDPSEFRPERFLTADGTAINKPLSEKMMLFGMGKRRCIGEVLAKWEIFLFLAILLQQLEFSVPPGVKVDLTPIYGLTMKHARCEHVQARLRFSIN

Cytochrome P450 2C9 = Cytochrome P450 2C9 (Homo sapiens, UniProt P11712); experiment: Inhibition of CYP2C9 (unknown origin); format: ADME
Chain of Cytochrome P450 2C9 (P11712 whole entry): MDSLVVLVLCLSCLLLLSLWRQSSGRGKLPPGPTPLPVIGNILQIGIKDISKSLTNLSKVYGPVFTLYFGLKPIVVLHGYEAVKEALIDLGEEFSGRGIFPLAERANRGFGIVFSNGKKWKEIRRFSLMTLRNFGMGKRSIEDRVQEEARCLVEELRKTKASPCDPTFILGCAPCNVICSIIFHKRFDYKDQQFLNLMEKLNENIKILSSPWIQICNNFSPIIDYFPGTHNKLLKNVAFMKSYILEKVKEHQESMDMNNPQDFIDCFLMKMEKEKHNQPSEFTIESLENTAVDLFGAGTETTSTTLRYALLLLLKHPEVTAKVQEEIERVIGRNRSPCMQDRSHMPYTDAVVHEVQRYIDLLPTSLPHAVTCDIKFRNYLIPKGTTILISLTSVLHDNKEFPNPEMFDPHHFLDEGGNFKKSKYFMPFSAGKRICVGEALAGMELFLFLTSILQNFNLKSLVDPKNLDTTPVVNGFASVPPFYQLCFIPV

[7] = Apparent permeability from apical to basolateral side in MDCK cells; format: ADME, cell-based, Canis lupus familiaris; conditions: dog
Cytochrome P450 3A4 = Cytochrome P450 3A4 (Homo sapiens, UniProt P08684); experiment: Inhibition of CYP3A4 (unknown origin); format: ADME
Chain of Cytochrome P450 3A4 (P08684 whole entry): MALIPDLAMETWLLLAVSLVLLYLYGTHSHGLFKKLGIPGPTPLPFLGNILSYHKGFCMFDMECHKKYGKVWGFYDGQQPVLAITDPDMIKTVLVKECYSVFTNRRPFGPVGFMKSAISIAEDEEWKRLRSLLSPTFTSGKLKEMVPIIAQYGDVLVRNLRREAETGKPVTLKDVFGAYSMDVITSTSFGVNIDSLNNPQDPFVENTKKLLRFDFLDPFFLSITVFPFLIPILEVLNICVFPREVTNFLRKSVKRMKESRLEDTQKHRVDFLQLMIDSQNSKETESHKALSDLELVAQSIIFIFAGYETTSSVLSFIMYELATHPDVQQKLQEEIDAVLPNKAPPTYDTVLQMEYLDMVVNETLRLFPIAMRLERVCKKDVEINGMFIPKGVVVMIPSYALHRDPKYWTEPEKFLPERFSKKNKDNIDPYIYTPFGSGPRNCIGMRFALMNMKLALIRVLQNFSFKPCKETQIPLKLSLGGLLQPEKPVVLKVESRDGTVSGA

Cytochrome P450 2D6 = Cytochrome P450 2D6 (Homo sapiens, UniProt P10635); experiment: Inhibition of CYP2D6 (unknown origin); format: ADME
Chain of Cytochrome P450 2D6 (P10635 whole entry): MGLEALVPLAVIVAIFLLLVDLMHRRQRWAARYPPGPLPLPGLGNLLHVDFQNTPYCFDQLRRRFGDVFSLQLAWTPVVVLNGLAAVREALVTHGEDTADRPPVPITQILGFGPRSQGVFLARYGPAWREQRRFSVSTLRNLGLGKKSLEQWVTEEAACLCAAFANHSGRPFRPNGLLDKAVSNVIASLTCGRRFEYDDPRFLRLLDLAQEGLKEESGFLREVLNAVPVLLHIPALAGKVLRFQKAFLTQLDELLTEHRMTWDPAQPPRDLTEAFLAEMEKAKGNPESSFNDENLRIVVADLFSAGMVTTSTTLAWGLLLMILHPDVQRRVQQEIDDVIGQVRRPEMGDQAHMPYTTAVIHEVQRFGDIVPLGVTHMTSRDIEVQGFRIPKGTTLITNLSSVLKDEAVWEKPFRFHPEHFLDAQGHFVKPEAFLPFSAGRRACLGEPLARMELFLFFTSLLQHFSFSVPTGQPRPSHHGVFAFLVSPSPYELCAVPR

[8] = target: T5, Prostaglandin E2 receptor EP4 subtype (Homo sapiens, UniProt P35408); experiment: Binding affinity to human EP4 receptor
T5 sequence (P35408 whole entry): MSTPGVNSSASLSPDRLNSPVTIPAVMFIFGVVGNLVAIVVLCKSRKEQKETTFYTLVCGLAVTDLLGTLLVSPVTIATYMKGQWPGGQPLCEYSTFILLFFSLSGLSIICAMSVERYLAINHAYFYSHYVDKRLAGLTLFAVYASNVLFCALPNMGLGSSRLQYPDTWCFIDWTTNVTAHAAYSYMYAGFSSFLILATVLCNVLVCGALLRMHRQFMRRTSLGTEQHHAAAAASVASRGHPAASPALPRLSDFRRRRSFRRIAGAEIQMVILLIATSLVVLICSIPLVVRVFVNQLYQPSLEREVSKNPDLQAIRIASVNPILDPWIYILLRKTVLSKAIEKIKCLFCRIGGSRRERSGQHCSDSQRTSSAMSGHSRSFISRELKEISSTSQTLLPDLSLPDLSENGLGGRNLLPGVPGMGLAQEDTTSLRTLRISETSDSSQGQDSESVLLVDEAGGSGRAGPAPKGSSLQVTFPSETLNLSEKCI

Cytochrome P450 2C19 = Cytochrome P450 2C19 (Homo sapiens, UniProt P33261); experiment: Inhibition of CYP2C19 (unknown origin); format: ADME
Chain of Cytochrome P450 2C19 (P33261 whole entry): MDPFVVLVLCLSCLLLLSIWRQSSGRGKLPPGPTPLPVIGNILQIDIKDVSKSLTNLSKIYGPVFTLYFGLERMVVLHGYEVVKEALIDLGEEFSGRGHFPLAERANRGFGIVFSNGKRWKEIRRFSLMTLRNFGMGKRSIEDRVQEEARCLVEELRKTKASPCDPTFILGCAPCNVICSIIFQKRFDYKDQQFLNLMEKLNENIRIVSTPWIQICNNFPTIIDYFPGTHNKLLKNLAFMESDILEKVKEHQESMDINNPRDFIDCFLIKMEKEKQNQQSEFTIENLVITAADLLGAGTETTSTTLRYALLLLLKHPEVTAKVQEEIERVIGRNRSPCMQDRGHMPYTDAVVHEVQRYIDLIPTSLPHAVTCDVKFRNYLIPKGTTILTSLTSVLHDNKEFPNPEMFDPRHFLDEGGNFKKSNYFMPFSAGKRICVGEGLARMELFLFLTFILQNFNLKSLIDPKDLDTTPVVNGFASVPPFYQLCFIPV

[9] = target: T2, Prostaglandin E2 receptor EP1 subtype; experiment: Antagonist activity at human EP1 receptor by intracellular Ca2+ release assay; format: functional, cell-based
[10] = Intrinsic clearance in human […] by LC/MS/MS analysis; format: ADME, cell-free
[11] = Intrinsic clearance in rat […] by LC/MS/MS analysis; format: ADME, cell-free
[12] = target: T6, Prostaglandin E2 receptor EP2 subtype (Homo sapiens, UniProt P43116); experiment: Binding affinity to human EP2 receptor
T6 sequence (P43116 whole entry): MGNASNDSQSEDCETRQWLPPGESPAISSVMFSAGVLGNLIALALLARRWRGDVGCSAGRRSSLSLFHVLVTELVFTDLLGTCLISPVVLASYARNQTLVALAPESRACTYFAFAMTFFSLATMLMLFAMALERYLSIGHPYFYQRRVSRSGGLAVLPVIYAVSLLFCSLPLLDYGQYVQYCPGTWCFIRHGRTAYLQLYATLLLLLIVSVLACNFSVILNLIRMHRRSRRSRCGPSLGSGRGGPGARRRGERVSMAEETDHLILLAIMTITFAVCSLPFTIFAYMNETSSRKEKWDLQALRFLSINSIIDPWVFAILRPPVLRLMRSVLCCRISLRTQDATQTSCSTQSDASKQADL

[13] = Oral bioavailability in Sprague-Dawley rat at 10 mg/kg; format: ADME, organism-based; conditions: in vivo
Homo sapiens [14] = species on record: Homo sapiens; experiment: Selectivity ratio of IC50 for EP4 receptor (unknown origin) to IC50 for human EP1 receptor
[15] = target: T3, Prostaglandin E2 receptor EP3 subtype; experiment: Antagonist activity at EP3 receptor (unknown origin)
[16] = target: T6, Prostaglandin E2 receptor EP2 subtype; experiment: Antagonist activity at EP2 receptor (unknown origin)
[17] = target: T5, Prostaglandin E2 receptor EP4 subtype; experiment: Antagonist activity at EP4 receptor (unknown origin)
Homo sapiens [18] = species on record: Homo sapiens; experiment: Selectivity ratio of IC50 for EP3 receptor (unknown origin) to IC50 for human EP1 receptor
Homo sapiens [19] = species on record: Homo sapiens; experiment: Selectivity ratio of IC50 for EP2 receptor (unknown origin) to IC50 for human EP1 receptor

Cc1cc(-c2ccccc2)nn1-c1nc(C(=O)O)cs1
inhibition [1]: 14%

COc1ccc(-c2cc(C(F)(F)F)n(-c3nc(C(=O)O)cs3)n2)cc1
IC50 [2]: 0.43 µM

O=C(O)c1csc(-n2nc(-c3ccc(O)cc3)cc2C(F)(F)F)n1
IC50 [2]: 0.32 µM

CC(C)(C)c1cc(-c2ccccc2)nn1-c1nc(C(=O)O)cs1
inhibition [1]: 1%

O=C(O)c1csc(-n2nc(-c3ccccc3O)cc2C(F)(F)F)n1
Activity (Salmonella typhimurium [3]): Non-toxic | Activity (Salmonella typhimurium [4]): Non-toxic | Ki [5]: 0.53 µM | Ki [6]: > 5 µM | IC50 [2]: 0.18 µM | IC50 (Cytochrome P450 1A2): > 10 µM | IC50 (Cytochrome P450 2C9): > 10 µM | Papp A→B [7]: 22.8 ×10⁻⁶ cm/s | IC50 (Cytochrome P450 3A4): > 10 µM | IC50 (Cytochrome P450 2D6): > 10 µM | Ki [8]: > 2.7 µM | IC50 (Cytochrome P450 2C19): > 10 µM | IC50 [9]: 0.8 µM | CLint scaled [10]: 500 mL/min/kg | CLint scaled [11]: 130 mL/min/kg | Ki [12]: > 8 µM

Cc1c(-c2ccccc2)nn(-c2nc(C(=O)O)cs2)c1C(F)(F)F
IC50 [2]: 0.084 µM

O=C(O)c1csc(-n2nc(-c3ccccc3)cc2-c2ccccc2)n1
inhibition [1]: 31%

Cc1c(-c2ccccc2)nn(-c2nc(C(=O)O)cs2)c1-c1ccccc1
Activity (Salmonella typhimurium [3]): Non-toxic | Activity (Salmonella typhimurium [4]): Non-toxic | Ki [5]: 0.29 µM | Ki [6]: > 5 µM | IC50 [2]: 0.05 µM | IC50 (Cytochrome P450 1A2): 7.93 µM | bioavailability [13]: 32% | IC50 (Cytochrome P450 2C9): > 10 µM | Papp A→B [7]: 51.6 ×10⁻⁶ cm/s | IC50 (Cytochrome P450 3A4): > 10 µM | IC50 (Cytochrome P450 2D6): > 10 µM | Ki [8]: > 2.7 µM | IC50 (Cytochrome P450 2C19): 4.71 µM | IC50 [9]: 0.5 µM | CLint scaled [10]: 35 mL/min/kg | CLint scaled [11]: 15 mL/min/kg | Ki [12]: > 8 µM

O=C(O)c1csc(-n2nc(-c3ccccc3)cc2C(F)(F)F)n1
IC50 [2]: 0.32 µM | IC50 (Cytochrome P450 1A2): > 10 µM | IC50 (Cytochrome P450 2C9): > 10 µM | IC50 (Cytochrome P450 3A4): > 10 µM | IC50 (Cytochrome P450 2D6): > 10 µM | IC50 (Cytochrome P450 2C19): > 10 µM | CLint scaled [10]: 28 mL/min/kg

Cc1ccc(-c2cc(C(F)(F)F)n(-c3nc(C(=O)O)cs3)n2)cc1
IC50 [2]: 3 µM

Cc1c(-c2ccccc2)nc(-c2nc(C(=O)O)cs2)n1-c1ccccc1
inhibition [1]: 7%

Cn1c(-c2ccccc2)nc(-c2nc(C(=O)O)cs2)c1-c1ccccc1
IC50 [2]: 0.5 µM

O=C(O)c1csc(-n2nc(-c3cccc(O)c3)cc2C(F)(F)F)n1
IC50 [2]: 0.58 µM

COc1ccc(-c2cc(C(F)(F)F)nn2-c2nc(C(=O)O)cs2)cc1
Activity (Salmonella typhimurium [3]): Non-toxic | Ratio IC50 (Homo sapiens [14]): 3 | Activity (Salmonella typhimurium [4]): Non-toxic | Ki [5]: 8.7 µM | Ki [6]: > 5 µM | IC50 [15]: > 5 µM | IC50 [16]: > 8 µM | IC50 [17]: > 2.7 µM | IC50 [2]: 1 µM | IC50 (Cytochrome P450 1A2): > 10 µM | IC50 (Cytochrome P450 2C9): > 10 µM | Ratio IC50 (Homo sapiens [18]): 3 | IC50 (Cytochrome P450 3A4): > 10 µM | IC50 (Cytochrome P450 2D6): > 10 µM | Ki [8]: > 2.7 µM | IC50 (Cytochrome P450 2C19): 7.14 µM | IC50 [9]: 5.8 µM | CLint scaled [10]: 187 mL/min/kg | CLint scaled [11]: 195 mL/min/kg | Ki [12]: > 8 µM | Ratio IC50 (Homo sapiens [19]): 3

Source: ChEMBL document CHEMBL2440026, “Hit-to-lead optimization of 2-(1H-pyrazol-1-yl)-thiazole derivatives as a novel class of EP1 receptor antagonists” (Bioorg Med Chem Lett, 2013)
